In patent EP0215136B1, “Hexetidin-containing therapeutically active agent, method for its preparation and its use as a vaginal disinfectant” (Artesan Pharma Gesellschaft mit beschränkter Haftung, priority 1985, dated 1987):

What was measured:
[1] = cited from earlier work
[2] = Stability of hexetidine in aqueous solution; format: physicochemical; conditions: neutral to weakly acidic aqueous solution; rearranges to two isomers up to an equilibrium
From the text: Aufgrund über Jahre geführter Untersuchungen sind die bekannten Methoden nicht geeignet, ein stabiles pharmazeutisches Präparat herzustellen. […] Es lagert sich bis zu einem Gleichgewicht in zwei isomere Substanzen um. Zwar wirken diese im Prinzip gleichartig, jedoch dürfen sie aus gesundheitsrechtlichen Gründen im Endprodukt nur geringfügig vorhanden sein.

[3] = cited from earlier work; remark: listed apart in the source

| SMILES | Löslichkeit in Wasser [1] | Haltbarkeit in wässeriger Lösung [2] | Löslichkeit in Alkohol ([1]; Alkohol) | Löslichkeit in unpolaren organischen Lösungsmitteln ([1]; unpolare organische Lösungsmittel) | Haut- und Schleimhaut-Verträglichkeit ([3]; known property) | Toxizität bei Resorption ([3]; known property) | toxische Wirkung ([3]; use as 0,1% gargle solution over 20 years) |
| --- | --- | --- | --- | --- | --- | --- | --- |
| CCCCC(CC)CN1CN(CC(CC)CCCC)CC(C)(N)C1 (centres unmarked) [Hexetidinsalz] | leicht löslich |  |  |  |  |  |  |
| CCCCC(CC)CN1CN(CC(CC)CCCC)CC(C)(N)C1 (centres unmarked) [Hexetidin, 1,3-Bis-(2-ethylhexyl)-hexahydro-5-methyl-5-pyrimidinamin] | nur schwer löslich | nur kurzfristig haltbar | leicht löslich | leicht löslich | gute | geringe | nie beobachtet |
